One test has as its target T1, Kv1.3 potassium channel (Homo sapiens, UniProt P22001).
T1 construct: expressed in transfected cells
Description: Kv1.3 potassium channel blocker activity, automated whole-cell patch clamp (Patchliner) in CHO-K1 cells stably expressing Kv1.3. As to conditions: 30 nM-100 μM. The format is cell-based. In short, it runs like this: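 Whole-cell automated patch clamp in CHO-K1 cells, pH 7.4 external/7.2 internal; 100 ms steps from −90 to +40 mV at 0.1 Hz, 20-pulse trains. Cumulative 30 nM–100 μM on one cell, ≤10 s per concentration; last-pulse current normalized to control, IC50 from Hill fit.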

Another test deals with T2, hERG channel (Homo sapiens, UniProt Q12809).
T2 construct: expressed in transfected cells
As to the kind of experiment: hERG electrophysiology, automated whole-cell patch clamp (Patchliner) in CHO-K1 cells stably expressing hERG. It counts as cell-based. As to conditions: 30 nM-100 μM. The method, then: This assay is used to evaluate the disclosed compounds' inhibition activities against the hERG channel.
CHO-K1 cells stably expressing hERG were grown in Ham's F-12 Medium with glutamine containing 10% heat-inactivated FBS, 1% penicillin/streptomycin, hygromycin (100 μg/ml) and G418 (100 μg/ml). Cells were grown in culture flasks at 37° C. in a 5% CO2-humidified incubator.
The cells were bathed in an extracellular solution containing 140 mM NaCl, 4 mM KCl, 2 mM CaCl2), 1 mM MgCl2, 5 mM Glucose, 10 mM HEPES; pH adjusted to 7.4 with NaOH; 295-305 mOsm. The internal solution contained 50 mM KCl, 10 mM NaCl, 60 mM KF, 20 mM EGTA, 10 mM HEPES; pH adjusted to 7.2 with KOH; 285 mOsm. All compounds were dissolved in DMSO at 30 mM. Compound stock solutions were freshly diluted with external solution to concentrations of 30 nM, 100 nM, 300 nM, 1 μM, 3 μM, 10 μM, 30 μM and 100 μM. The highest content of DMSO (0.3%) was present in 100 μM.
The voltage protocol (see Table B) was designed to simulate voltage changes during a cardiac action potential with a 300 ms depolarization to +20 mV (analogous to the plateau phase of the cardiac action potential), a repolarization for 300 ms to −50 mV (inducing a tail current) and a final step to the holding potential of −80 mV. The pulse frequency was 0.3 Hz. Control (compound-free) and compound pulse trains for each compound concentration applied contained 70 pulses.
Whole-cell current recordings and compound application were enabled by means of an automated patch clamp platform Patchliner (Nanion). EPC 10 patch clamp amplifier (HEKA) along with Patchmaster software (HEKA Elektronik Dr. Schulze GmbH) was used for data acquisition. Data were sampled at 10 kHz without filtering. Increasing compound concentrations were applied consecutively to the same cell without washouts in between.
AUC and PEAK values were obtained with Patchmaster (HEKA Elektronik Dr. Schulze GmbH). To determine IC50 the last single pulse in the pulse train corresponding to a given compound concentration was used. Obtained AUC and PEAK values in the presence of compound were normalized to control values in the absence of compound. Using Origin (OridinLab), IC50 was derived from data fit to Hill equation: Icompound/Icontrol=(100−A)/(1+([compound]/IC50)nH)+A, where IC50 is the concentration at which current inhibition is half-maximal, [compound] is the applied compound concentration, A is the fraction of current that is not blocked and nH is the Hill coefficient.

SMILES strings stand for the structures. Bounds are passed on as bounds.

T1 sequence (P22001 whole entry): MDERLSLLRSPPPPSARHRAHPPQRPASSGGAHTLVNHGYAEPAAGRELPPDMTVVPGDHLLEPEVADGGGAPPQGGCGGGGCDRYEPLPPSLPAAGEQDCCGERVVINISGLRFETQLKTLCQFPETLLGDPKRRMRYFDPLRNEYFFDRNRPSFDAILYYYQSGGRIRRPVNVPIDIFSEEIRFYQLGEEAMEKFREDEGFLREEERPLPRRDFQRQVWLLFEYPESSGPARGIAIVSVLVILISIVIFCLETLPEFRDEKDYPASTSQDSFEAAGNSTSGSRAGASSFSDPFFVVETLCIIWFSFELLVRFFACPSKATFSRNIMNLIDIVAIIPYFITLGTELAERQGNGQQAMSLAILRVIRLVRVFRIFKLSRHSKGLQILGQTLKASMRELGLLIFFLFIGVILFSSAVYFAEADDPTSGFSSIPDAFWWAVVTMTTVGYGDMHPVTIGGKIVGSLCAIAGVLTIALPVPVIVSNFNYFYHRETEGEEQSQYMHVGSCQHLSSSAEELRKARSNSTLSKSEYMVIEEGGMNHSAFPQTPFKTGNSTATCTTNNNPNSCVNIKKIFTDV
T2 sequence (Q12809 whole entry): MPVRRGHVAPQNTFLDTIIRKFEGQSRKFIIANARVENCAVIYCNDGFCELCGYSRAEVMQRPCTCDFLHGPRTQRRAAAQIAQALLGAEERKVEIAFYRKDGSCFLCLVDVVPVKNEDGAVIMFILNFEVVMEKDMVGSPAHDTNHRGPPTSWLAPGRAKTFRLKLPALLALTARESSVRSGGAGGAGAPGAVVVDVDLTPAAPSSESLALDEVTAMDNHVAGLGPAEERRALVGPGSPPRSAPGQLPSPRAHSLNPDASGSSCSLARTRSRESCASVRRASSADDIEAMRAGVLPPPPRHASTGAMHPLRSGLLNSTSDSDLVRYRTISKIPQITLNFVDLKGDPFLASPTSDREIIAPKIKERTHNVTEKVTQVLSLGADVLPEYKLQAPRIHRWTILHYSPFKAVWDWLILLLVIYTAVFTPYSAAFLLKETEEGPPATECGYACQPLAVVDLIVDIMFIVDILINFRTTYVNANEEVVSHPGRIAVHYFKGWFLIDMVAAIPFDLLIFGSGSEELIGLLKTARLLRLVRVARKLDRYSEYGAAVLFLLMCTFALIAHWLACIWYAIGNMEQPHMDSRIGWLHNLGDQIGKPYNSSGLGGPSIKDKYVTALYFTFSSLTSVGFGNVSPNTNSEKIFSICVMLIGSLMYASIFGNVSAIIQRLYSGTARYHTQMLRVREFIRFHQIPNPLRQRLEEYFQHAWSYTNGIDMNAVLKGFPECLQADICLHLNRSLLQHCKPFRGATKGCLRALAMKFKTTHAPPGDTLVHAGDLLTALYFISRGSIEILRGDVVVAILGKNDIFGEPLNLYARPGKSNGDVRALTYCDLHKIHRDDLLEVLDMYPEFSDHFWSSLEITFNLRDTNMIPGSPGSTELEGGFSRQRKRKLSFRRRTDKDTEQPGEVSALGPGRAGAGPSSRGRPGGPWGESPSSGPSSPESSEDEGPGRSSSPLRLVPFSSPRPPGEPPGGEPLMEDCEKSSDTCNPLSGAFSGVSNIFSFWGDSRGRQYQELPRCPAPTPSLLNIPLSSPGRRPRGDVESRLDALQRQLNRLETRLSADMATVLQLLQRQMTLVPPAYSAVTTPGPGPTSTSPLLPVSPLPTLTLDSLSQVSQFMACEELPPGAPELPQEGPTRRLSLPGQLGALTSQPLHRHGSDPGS

Take `NCCC(=O)N1CC[C@]2(C1)C(=O)Nc1cc(Cl)c(Cl)cc12` [Compound 9, (S)-1′-(3-aminopropanoyl)-5,6-dichlorospiro[indoline-3,3′-pyrrolidin]-2-one]: the IC50 against Kv1.3 potassium channel was below 1 µM; against hERG channel it was above 100 µM.

For `O=C([C@H]1CNC[C@H]1O)N1CC[C@]2(C1)C(=O)Nc1cc(Cl)c(Cl)cc12` (single isomer, unassigned) [Compound 2], the IC50 was below 0.3 µM on Kv1.3 potassium channel and above 100 µM against hERG channel.

For the molecule `O=C([C@H]1CN[C@@H](CO)C1)N1CC[C@]2(C1)C(=O)Nc1cc(Cl)c(Cl)cc12` [Compound 116, (S)-5,6-dichloro-1′-((3R,5R)-5-(hydroxymethyl)pyrrolidine-3-carbonyl)spiro[indoline-3,3′-pyrrolidin]-2-one], the IC50 against Kv1.3 potassium channel was below 0.1 µM; at hERG channel, above 100 µM.

Consider `O=C([C@H]1CC[C@@](O)(CO)C1)N1CC[C@]2(C1)C(=O)Nc1cc(Cl)c(Cl)cc12` (relative stereo) [Compound 97, (S)-5,6-dichloro-1′-((1R,3R)-rel-3-hydroxy-3-(hydroxymethyl)cyclopentane-1-carbonyl)spiro[indoline-3,3′-pyrrolidin]-2-one isomer 1], for which the IC50 on Kv1.3 potassium channel was below 1 µM; on hERG channel, above 100 µM.

Turning to `O=C([C@@H]1CN[C@H](CO)C1)N1CC[C@]2(C1)C(=O)Nc1cc(Cl)c(Cl)cc12` [Compound 113, (3S)-5,6-dichloro-1-[(3S,53)-5-(hydroxymethyl)pyrrolidine-3-carbonyl]-1H-spiro[indole-3,3-pyrrolidin]-2-one], the IC50 is below 0.1 µM on Kv1.3 potassium channel and above 100 µM against hERG channel.

As for `NCC(=O)N1CC[C@]2(C1)C(=O)Nc1cc(Cl)c(Cl)cc12` [Compound 5, (S)-5,6-dichloro-1′-glycylspiro[indoline-3,3′-pyrrolidin]-2-one], the IC50 on Kv1.3 potassium channel is below 1 µM; against hERG channel it was above 30 µM.

On to `Nc1cc(C(=O)N2CC[C@]3(C2)C(=O)Nc2cc(Cl)c(Cl)cc23)ccn1` [Compound 42, (S)-1′-(2-aminoisonicotinoyl)-5,6-dichlorospiro[indoline-3,3′-pyrrolidin]-2-one], for which the IC50 is below 0.3 µM on Kv1.3 potassium channel and above 10 µM on hERG channel.

As for `O=C([C@H]1CN[C@H](CO)C1)N1CC[C@]2(C1)C(=O)Nc1cc(Cl)c(Cl)cc12` [Compound 114, (3S)-5,6-dichloro-1′-[(3R,5S)-5-(hydroxymethyl)pyrrolidine-3-carbonyl]-1H-spiro[indole-3,3′-pyrrolidin]-2-one], the IC50 was below 0.3 µM against Kv1.3 potassium channel and above 100 µM against hERG channel.

For `O=C([C@@H]1CNC[C@H]1O)N1CC[C@]2(C1)C(=O)Nc1cc(Cl)c(Cl)cc12` (single isomer, unassigned) [Compound 3], the IC50 on Kv1.3 potassium channel was below 0.1 µM; against hERG channel it was above 100 µM.

With `O=C(C1CCN(CCO)C1)N1CC[C@]2(C1)C(=O)Nc1cc(Cl)c(Cl)cc12` (single isomer, unassigned; isomer 1) [Compound 37], the IC50 is below 0.3 µM at Kv1.3 potassium channel and above 100 µM against hERG channel.

For `O=C(c1cn[nH]c1)N1CC[C@]2(C1)C(=O)Nc1cc(Cl)c(Cl)cc12` [Compound 35, (S)-5,6-dichloro-1′-(1H-pyrazole-4-carbonyl)spiro[indoline-3,3′-pyrrolidin]-2-one], the IC50 was below 1 µM against Kv1.3 potassium channel and above 100 µM against hERG channel.

`C[C@@H]1NCC[C@H]1C(=O)N1CC[C@]2(C1)C(=O)Nc1cc(Cl)c(Cl)cc12` (single isomer, unassigned; isomer 1) [Compound 39]: the IC50 against Kv1.3 potassium channel was below 0.3 µM; on hERG channel it was above 100 µM.

For `Cc1[nH]ncc1C(=O)N1CC[C@]2(C1)C(=O)Nc1cc(Cl)c(Cl)cc12` [Compound 71, (S)-5,6-dichloro-1′-(5-methyl-1H-pyrazol-4-carbonyl)spiro[indoline-3,3′-pyrrolidin]-2-one], the IC50 at Kv1.3 potassium channel is below 1 µM; against hERG channel, above 30 µM.

For `C[C@H]1NCC[C@@H]1C(=O)N1CC[C@]2(C1)C(=O)Nc1cc(Cl)c(Cl)cc12` (relative stereo) [Compound 40, (S)-5,6-dichloro-1′-((2S,3R)-rel-2-methylpyrrolidine-3-carbonyl)spiro[indoline-3,3′-pyrrolidin]-2-one isomer 2], the IC50 was below 0.3 µM against Kv1.3 potassium channel and above 100 µM on hERG channel.

Consider `O=C1Nc2cc(Cl)c(Cl)cc2[C@]12CCN(C(=O)[C@H]1CC[C@H](O)CC1)C2` [Compound 52, (S)-5,6-dichloro-1′-((1r,4S)-4-hydroxycyclohexane-1-carbonyl)Spiro[indoline-3,3′-pyrrolidin]-2-one], for which the IC50 against Kv1.3 potassium channel was below 1 µM; on hERG channel, above 30 µM.

Take `O=C(N1CC[C@]2(C1)C(=O)Nc1cc(Cl)c(Cl)cc12)C1(F)CCNC1` (single isomer, unassigned; isomer 1) [Compound 29]: the IC50 against Kv1.3 potassium channel was below 0.3 µM; at hERG channel, above 3 µM.

With `O=C(CCCO)N1CC[C@]2(C1)C(=O)Nc1cc(Cl)c(Cl)cc12` [Compound 56, (S)-5,6-dichloro-1′-(4-hydroxybutanoyl)spiro[indoline-3,3′-pyrrolidin]-2-one], the IC50 was below 3 µM on Kv1.3 potassium channel and above 100 µM against hERG channel.

Consider `O=C(C1CNC1)N1CC[C@]2(C1)C(=O)Nc1cc(Cl)c(Cl)cc12` [Compound 8, (S)-1′-(azetidine-3-carbonyl)-5,6-dichlorospiro[indoline-3,3′-pyrrolidin]-2-one], for which the values for the IC50 against Kv1.3 potassium channel and against hERG channel were below 1 µM and above 100 µM, respectively.

As to `O=C([C@H]1CC[C@](O)(CO)C1)N1CC[C@]2(C1)C(=O)Nc1cc(Cl)c(Cl)cc12` (relative stereo) [Compound 95, (S)-5,6-dichloro-1′-((1R,3S)-rel-3-hydroxy-3-(hydroxymethyl)cyclopentane-1-carbonyl)spiro[indoline-3,3′-pyrrolidin]-2-one isomer 1], the IC50 is below 1 µM at Kv1.3 potassium channel and above 100 µM at hERG channel.

Turning to `Cc1c(Cl)c(Cl)cc2c1NC(=O)[C@@]21CCN(C(=O)CO)C1` [Compound 129, (3S)-5,6-dichloro-1′-(2-hydroxyacetyl)-7-methyl-1H-spiro[indole-3,3′-pyrrolidin]-2-one], the half-inhibitory concentration (IC50) on Kv1.3 potassium channel was below 0.3 µM; against hERG channel it was above 100 µM.

For `O=C(c1ccnc(CO)c1)N1CC[C@]2(C1)C(=O)Nc1cc(Cl)c(Cl)cc12` [Compound 67, (S)-5,6-dichloro-1′-(2-(hydroxymethyl)isonicotinoyl)spiro[indoline-3,3′-pyrrolidin]-2-one], the IC50 against Kv1.3 potassium channel is below 1 µM; against hERG channel it was above 100 µM.

As to `O=C([C@@H]1CCN(CCO)C1)N1CC[C@]2(C1)C(=O)Nc1cc(Cl)c(Cl)cc12` (single isomer, unassigned; isomer 2) [Compound 38], the IC50 against Kv1.3 potassium channel is below 0.3 µM; against hERG channel, above 100 µM.

Regarding `O=C(CO)N1CC[C@]2(C1)C(=O)Nc1c2cc(Cl)c(Cl)c1Cl` [Compound 121, (3S)-5,6,7-trichloro-1′-(2-hydroxyacetyl)-1H-spiro[indole-3,3′-pyrrolidin]-2-one], the IC50 on Kv1.3 potassium channel is below 0.3 µM; against hERG channel it was above 10 µM.

As for `COC[C@H]1C[C@H](C(=O)N2CC[C@]3(C2)C(=O)Nc2cc(Cl)c(Cl)cc23)CN1` [Compound 112, (S)-5,6-dichloro-1′-((3S,5R)-5-(methoxymethyl)pyrrolidine-3-carbonyl)spiro[indoline-3,3′-pyrrolidin]-2-one], the IC50 was below 0.3 µM at Kv1.3 potassium channel and above 100 µM at hERG channel.

(Values after US20240391926A1, “SPIROINDOLINONE COMPOUNDS AS Kv1.3 POTASSIUM SHAKER CHANNEL BLOCKERS” (D.E. Shaw Research, LLC, priority 2021, published 2024).)
